Assay results as given in patent US10792289B2 (Horizon Orphan LLC, priority 2009, dated 2020).

Tested on: stable CF patients
Assay: Phase 2 study: CFQ-R questionnaire
Format: in vivo, human
Settings: for CFQ-R respiratory, mean change from baseline: MITT, Baseline to Day 28
Experimental: The following dosage regimens (as nebulizer loaded doses) were evaluated: 120 mg QD (daily); 240 mg QD (daily); and 240 mg BID (twice daily).
Patients were assessed on Day 1, 7, 14, and 28, and then up to 28 days after completion of study drug, namely, Days 42 and 56. The end of the study was defined as the last visit of the last patient.
Efficacy was evaluated by microbiologic assessment of sputum samples, time to need for anti-pseudomonal antimicrobials, the Cystic Fibrosis Questionaire-Revised (CFQ-R), and pulmonary function tests. […] Pair-wise comparisons between all the treatment arms were conducted as secondary analyses.
Patients completed the CFQ-R questionnaire with domains that included: respiratory, body image, digestion, eating, emotion, health perception, physical, role/school, social, treatment burden, vitality, and weight.

[1] = MITT population, 240 mg BID vs Placebo, baseline to visit 4
[2] = MITT population, 240 mg BID, baseline to visit 4
[3] = MITT population, Combined 240 mg QD and BID

C[C@H]1COc2c(N3CCN(C)CC3)c(F)cc3c(=O)c(C(=O)O)cn1c23 [Levofloxacin, levofloxacin]
Respiratory domain of CFQ-R, Change from Baseline to Day 28, Mean (MITT population, 120 mg QD): 2.0
Respiratory domain of CFQ-R, Change from Baseline to Day 28, Median (MITT population, 120 mg QD): 0.0
Respiratory domain of CFQ-R, Day 1, Mean (MITT population, 120 mg QD): 62.3
Respiratory domain of CFQ-R, Day 1, Median (MITT population, 120 mg QD): 61.1
Respiratory domain of CFQ-R, Day 14, Mean (MITT population, 120 mg QD): 67.1
Respiratory domain of CFQ-R, Day 14, Median (MITT population, 120 mg QD): 66.7
Respiratory domain of CFQ-R, Day 28, Mean (MITT population, 120 mg QD): 64.6
Respiratory domain of CFQ-R, Day 28, Median (MITT population, 120 mg QD): 66.7
Respiratory domain of CFQ-R, Change from Baseline to Day 14, Mean (MITT population, 240 mg BID): 7.5
Respiratory domain of CFQ-R, Change from Baseline to Day 14, Median (MITT population, 240 mg BID): 5.6
Respiratory domain of CFQ-R, Change from Baseline to Day 28, Mean (MITT population, 240 mg BID): 3.0
Respiratory domain of CFQ-R, Change from Baseline to Day 28, Median (MITT population, 240 mg BID): 0.0
Respiratory domain of CFQ-R, Day 1, Mean (MITT population, 240 mg BID): 60.5
Respiratory domain of CFQ-R, Day 1, Median (MITT population, 240 mg BID): 61.1
Respiratory domain of CFQ-R, Day 14, Mean (MITT population, 240 mg BID): 68.4
Respiratory domain of CFQ-R, Day 14, Median (MITT population, 240 mg BID): 72.2
Respiratory domain of CFQ-R, Day 28, Mean (MITT population, 240 mg BID): 64.4
Respiratory domain of CFQ-R, Day 28, Median (MITT population, 240 mg BID): 72.2
CFQ-R Body Image, LS Mean Difference [1]: −0.25
CFQ-R Digestion, LS Mean Difference [1]: 2.46
CFQ-R Eating, LS Mean Difference [1]: 5.70
CFQ-R Emotion, LS Mean Difference [1]: −0.09
CFQ-R Health Perception, LS Mean Difference [1]: 2.58
CFQ-R Physical, LS Mean Difference [1]: 5.94
CFQ-R Respiratory, LS Mean Difference [1]: 4.50
CFQ-R Role/School, LS Mean Difference [1]: −0.53
CFQ-R Social, LS Mean Difference [1]: 2.37
CFQ-R Treatment Burden, LS Mean Difference [1]: 0.06
CFQ-R Vitality, LS Mean Difference [1]: 3.11
CFQ-R Weight, LS Mean Difference [1]: 5.4
CFQ-R Body Image, LS Mean Change from Baseline [2]: 0.34
CFQ-R Digestion, LS Mean Change from Baseline [2]: 1.11
CFQ-R Eating, LS Mean Change from Baseline [2]: 2.41
CFQ-R Emotion, LS Mean Change from Baseline [2]: 2.22
CFQ-R Health Perception, LS Mean Change from Baseline [2]: 0.52
CFQ-R Physical, LS Mean Change from Baseline [2]: 3.14
CFQ-R Respiratory, LS Mean Change from Baseline [2]: 4.06
CFQ-R Role/School, LS Mean Change from Baseline [2]: −1.94
CFQ-R Social, LS Mean Change from Baseline [2]: 0.69
CFQ-R Treatment Burden, LS Mean Change from Baseline [2]: −0.93
CFQ-R Vitality, LS Mean Change from Baseline [2]: 1.23
CFQ-R Weight, LS Mean Change from Baseline [2]: 10.06
Respiratory domain of CFQ-R, Change from Baseline to Day 14, Mean (MITT population, 240 mg QD): 1.4
Respiratory domain of CFQ-R, Change from Baseline to Day 14, Median (MITT population, 240 mg QD): 0.0
Respiratory domain of CFQ-R, Change from Baseline to Day 28, Mean (MITT population, 240 mg QD): 0.3
Respiratory domain of CFQ-R, Change from Baseline to Day 28, Median (MITT population, 240 mg QD): 0.0
Respiratory domain of CFQ-R, Day 1, Mean (MITT population, 240 mg QD): 61.3
Respiratory domain of CFQ-R, Day 1, Median (MITT population, 240 mg QD): 61.1
Respiratory domain of CFQ-R, Day 14, Mean (MITT population, 240 mg QD): 63.0
Respiratory domain of CFQ-R, Day 14, Median (MITT population, 240 mg QD): 66.7
Respiratory domain of CFQ-R, Day 28, Mean (MITT population, 240 mg QD): 61.6
Respiratory domain of CFQ-R, Day 28, Median (MITT population, 240 mg QD): 66.7
Respiratory domain of CFQ-R, Change from Baseline to Day 14, Mean [3]: 4.5
Respiratory domain of CFQ-R, Change from Baseline to Day 14, Median [3]: 5.5
Respiratory domain of CFQ-R, Change from Baseline to Day 28, Mean [3]: 1.7
Respiratory domain of CFQ-R, Change from Baseline to Day 28, Median [3]: 0.0
Respiratory domain of CFQ-R, Day 1, Mean [3]: 60.9
Respiratory domain of CFQ-R, Day 1, Median [3]: 61.1
Respiratory domain of CFQ-R, Day 14, Mean [3]: 65.8
Respiratory domain of CFQ-R, Day 14, Median [3]: 69.4
Respiratory domain of CFQ-R, Day 28, Mean [3]: 63.0
Respiratory domain of CFQ-R, Day 28, Median [3]: 66.7
CFQ-R respiratory, mean change from baseline (120 mg QD): 0.3 units
CFQ-R respiratory, mean change from baseline (240 mg BID): 1.7 units
CFQ-R respiratory, mean change from baseline (240 mg QD): 3.0 units
